In patent US12545735B2, “Anti-met antibodies, bispecific antigen binding molecules that bind met, and methods of use thereof” (REGENERON PHARMACEUTICALS, INC., priority 2016, dated 2026):

Assays:
Assay type in all cases: cell-based, human
T47D cells [1] = test: 6-day in vitro cytotoxicity assay (nuclear counts); details: 6-day treatment
Description: (§1) To determine the relative cell-killing potency of anti-MET antibody drug conjugates (ADCs) described herein, cell-killing assays were run on multiple cells lines expressing varying levels of endogenous MET.
(§2) To measure in vitro cytotoxicity of anti-MET ADCs, nuclear counts after a 3 or 6-day treatment with the ADCs was assessed. […] For cell viability curves, serially diluted ADCs, unconjugated antibodies, or free payloads were added to the cells at final concentrations ranging from 100 nM to 0.01 nM (based on toxin concentration) and incubated for 3 or 6 days at 37° C. in 5% CO2. Cells were subsequently treated with 3 ug/ml Hoechst 33342 nuclear stain (Invitrogen, #H3570) while being fixed with 4% formaldehyde. Images were acquired on the ImageXpress micro XL (Molecular Devices, Sunnyvale, Calif.) and nuclear counts were determined via MetaXpress image analysis software (Molecular Devices, Sunnyvale, Calif.). Background nuclear counts from cells treated with […] digitonin were subtracted from all wells and viability was expressed as a percentage of the untreated controls. IC50 values were determined from a four-parameter logistic equation over a 10-point response curve (GraphPad Prism). The untreated condition for each dose-response curve is also included in the analysis and is represented as the lowest dose.

A549 cells [2] = test: 6-day in vitro cytotoxicity assay (nuclear counts); details: 6-day treatment
Description: as §1, §2

EBC-1 cells [3] = test: 6-day in vitro cytotoxicity assay (nuclear counts); details: 6-day treatment
Description: as §1, §2

Hs746T cells [4] = test: 6-day in vitro cytotoxicity assay (nuclear counts); details: 6-day treatment
Description: as §1, §2

NCI-H1993 cells = test: 3-day in vitro cytotoxicity assay (nuclear counts); details: 3-day treatment
Description: as §1, §2

SNU-5 cells = test: 3-day in vitro cytotoxicity assay (nuclear counts); details: 3-day treatment
Description: as §1, §2

EBC-1 cells [5] = test: 3-day in vitro cytotoxicity assay (nuclear counts); details: 3-day treatment
Description: as §1, §2

MKN-45 cells = test: 3-day in vitro cytotoxicity assay (nuclear counts); details: 3-day treatment
Description: as §1, §2

U87MG cells = test: 3-day in vitro cytotoxicity assay (nuclear counts); details: 3-day treatment
Description: as §1, §2

T47D cells [6] = test: 3-day in vitro cytotoxicity assay (nuclear counts); details: 3-day treatment
Description: as §1, §2

A549 cells [7] = test: 3-day in vitro cytotoxicity assay (nuclear counts); details: 3-day treatment
Description: as §1, §2

MDA-MB-231 cells = test: 3-day in vitro cytotoxicity assay (nuclear counts); details: 3-day treatment
Description: as §1, §2

HEK293 cells = test: 3-day in vitro cytotoxicity assay (nuclear counts); details: 3-day treatment
Description: as §1, §2

Hs746T cells [8] = test: 3-day in vitro cytotoxicity assay (nuclear counts); details: 3-day treatment
Description: as §1, §2

J.RT3 cells = test: 3-day in vitro cytotoxicity assay (nuclear counts); details: 3-day treatment
Description: as §1, §2

[9] = system: MET pathway in NCI-H596 cells; test: Immunoblot of MET and ERK phosphorylation, time course; details: HGF 50 ng/ml
Description: 250,000 NCI-H596 cells were seeded in a 12 well plate and cultured in RPMI Media supplemented with 10% FBS. […] The cells were subsequently incubated in 5% CO2 at 37° C. After 0, 2, 6 or 18 hours, cell lysates were prepared, protein content was normalized and immunoblot analysis was performed. MET phosphorylation and ERK phosphorylation were quantified with the ImageJ image processing program (T. Collins, BioTechniques 43: S25-S30, 2007). Phosphorylation levels were normalized to the Tubulin loading control and are expressed as fold change relative to control treatment.

[10] = system: MET (c-Met) in HEK293/SRE-Luc cells; test: SRE-luciferase reporter bioassay, blocking of HGF-mediated MET activation; details: antibodies plus HGF ligand; result in words
Description: (§3) The ability of anti-MET antibodies to block hepatocyte growth factor (HGF)-mediated MET activation was examined in a luciferase-based reporter assay. The growth factor HGF binds to the extracellular domain of its receptor c-Met (MET), triggering rapid homodimerization and activating several downstream signaling cascades. The anti-MET antibodies tested in this example were bivalent monospecific binders of MET, or anti-MET “bispecifics”, in which each arm of the bispecific antibody bound to a different and distinct epitope on MET. […]
(§4) Next, 2.0×10^5 HEK293/SRE-Luc cells were seeded in luciferase assay media in 96 well plates and incubated overnight at 37° C. in 5% CO2. […] Separately, the ability of the antibodies to activate c-Met in the absence of ligand was also assessed.
(§5) Luciferase activity was detected using the ONE-Glo™ Luciferase Assay System (Promega, Madison, Wis.), and emitted light was measured on a Victor or Envision luminometer (Perkin Elmer, Shelton, Conn.) and expressed as relative light units (RLUs). EC50/IC50 values were determined from a four-parameter logistic equation over a 12-point response curve using […] […]

[11] = system: MET (c-Met) in HEK293/SRE-Luc cells; test: SRE-luciferase reporter bioassay, ligand (HGF)-independent MET activation; details: antibody alone at various concentrations; result in words
Description: as §3, §4, §5

## COc1cc2cc(c1Cl)N(C)C(=O)CC(OC(=O)C(C)N(C)C(=O)CCSSC)C1(C)OC1C(C)C1CC(O)(NC(=O)O1)C(OC)C=CC=C(C)C2 (centres unmarked) [DM1 (MeS-DM1)]
T47D cells [1]
  IC50: 0.24 nM
  Max % Kill: 96%
A549 cells [2]
  IC50: 0.49 nM
  Max % Kill: 90%
EBC-1 cells [3]
  IC50: 0.12 nM
  Max % Kill: 62%
Hs746T cells [4]
  IC50: 1.39 nM
  Max % Kill: 88%
NCI-H1993 cells
  IC50: 2.86 nM
  Max % Kill: 81%
SNU-5 cells
  IC50: 1.22 nM
  Max % Kill: 99%
EBC-1 cells [5]
  IC50: 2.22 nM
  Max % Kill: 90%
MKN-45 cells
  IC50: 2.73 nM
  Max % Kill: 85%

## COc1cc2cc(c1Cl)N(C)C(=O)CC(OC(=O)C(C)N(C)C(=O)CCS)C1(C)OC1C(C)C1CC(O)(NC(=O)O1)C(OC)C=CC=C(C)C2 (centres unmarked) [DM1 (free drug)]
U87MG cells
  IC50: 0.61 nM
  Max % Kill: 89%
T47D cells [6]
  IC50: 1.33 nM
  Max % Kill: 91%
A549 cells [7]
  IC50: 2.56 nM
  Max % Kill: 97%
MDA-MB-231 cells
  IC50: 1.53 nM
  Max % Kill: 89%
HEK293 cells
  IC50: 0.15 nM
  Max % Kill: 95%
Hs746T cells [8]
  IC50: 1.46 nM
  Max % Kill: 81%
J.RT3 cells
  IC50: 0.07 nM
  Max % Kill: 100%

## CNCCC(=O)N(C)C(C)C(=O)OC1CC(=O)N(C)c2cc(cc(OC)c2Cl)CC(C)=CC=CC(OC)C2(O)CC(OC(=O)N2)C(C)C2OC12C (centres unmarked) [M24 (Maytansinoid B released payload)]
T47D cells [1]
  IC50: > 100 nM
  Max % Kill: 0%
A549 cells [2]
  IC50: > 100 nM
  Max % Kill: 10%
EBC-1 cells [3]
  IC50: > 100 nM
  Max % Kill: 32%
Hs746T cells [4]
  IC50: > 100 nM
  Max % Kill: 10%

## HGF: hepatocyte growth factor, the MET ligand / MET-agonist [reference compound]
[9]
  time of peak activation of MET and ERK: 2 h

## monovalent anti-MET antibody: monovalent MET antibody generated using the heavy and light chain variable sequences of MetMab (U.S. Pat. No. 7,892,550 B2) [reference compound]
[10]
  blocking of HGF-dependent MET activation (SRE-luciferase, FIG. 3B, FIG. 4B): showed greater HGF blocking
[11]
  MET agonist activity in the absence of HGF ligand (SRE-luciferase, FIG. 3A, FIG. 4A): neither the monovalent nor the MET×MET bispecific antibody showed MET agonist activity
